According to ChEMBL document CHEMBL1158702, “Cytotoxic 4-phenylcoumarins from the leaves of Marila pluricostata” (2005):
In brackets after ≈: the same amount, converted by molar mass.

What was measured:
Type in all cases: functional
SF-268 = assay: Cytotoxicity against human SF268 cells
MCF7 = assay: Cytotoxicity against human MCF7 cells
NCI-H460 = assay: Cytotoxicity against human H460 cells

Compound | GI50 (SF-268) | GI50 (MCF7) | GI50 (NCI-H460)
COc1c(C(=O)CC(C)C)c(O)c(CC=C(C)C)c2oc(=O)cc(-c3ccccc3)c12 | 0.4 µg/mL (≈ 0.951 µM) | 0.4 µg/mL (≈ 0.951 µM) | 0.5 µg/mL (≈ 1.19 µM)
CC(C)CC(=O)c1c2c(c3oc(=O)cc(-c4ccccc4)c3c1O)C=CC(C)(C)O2 [MAMMEIGIN] | > 10 µg/mL | > 10 µg/mL | > 10 µg/mL
CC(C)CC(=O)c1c(O)cc(O)c2c(-c3ccccc3)cc(=O)oc12 [ISODISPAR B] | 1.8 µg/mL (≈ 5.32 µM) | 1.5 µg/mL (≈ 4.43 µM) | 1.9 µg/mL (≈ 5.62 µM)
CC(C)CC(=O)c1c2c(c3oc(=O)cc(-c4ccccc4)c3c1O)C[C@@H](C(C)(C)O)O2 [CYCLOMAMMEISIN] | 5.2 µg/mL (≈ 12.3 µM) | 4.2 µg/mL (≈ 9.94 µM) | 4.6 µg/mL (≈ 10.9 µM)
CCC(C)C(=O)c1c2c(c3oc(=O)cc(-c4ccccc4)c3c1O)C[C@@H](C(C)(C)O)O2 (some centres not stated) | 4.8 µg/mL (≈ 11.4 µM) | 3.4 µg/mL (≈ 8.05 µM) | 4.4 µg/mL (≈ 10.4 µM)
CC(C)C(=O)c1c2c(c3oc(=O)cc(-c4ccccc4)c3c1O)C=CC(C)(C)O2 [MESUAGIN] | > 10 µg/mL | > 10 µg/mL | > 10 µg/mL
CCC(=O)c1c2c(c3oc(=O)cc(-c4ccccc4)c3c1O)CCC(C)(C)O2 | 6.8 µg/mL (≈ 18 µM) | 4.7 µg/mL (≈ 12.4 µM) | 5.7 µg/mL (≈ 15.1 µM)
CCC(C)C(=O)c1c2c(c3oc(=O)cc(-c4ccccc4)c3c1O)C=CC(C)(C)O2 (configuration not stated) | > 10 µg/mL | 9.6 µg/mL (≈ 23.7 µM) | > 10 µg/mL
CC(=O)Oc1c(C(=O)CC(C)C)c(OC(C)=O)c2c(-c3ccccc3)cc(=O)oc2c1CC=C(C)C [MAMMEISIN DIACETATE] | 0.5 µg/mL | 0.6 µg/mL | 0.6 µg/mL
CC1(C)CCc2c(cc(O)c3c(-c4ccccc4)cc(=O)oc23)O1 | 7.8 µg/mL (≈ 24.2 µM) | 5.7 µg/mL (≈ 17.7 µM) | 6.7 µg/mL (≈ 20.8 µM)
CCC(C)C(=O)c1c(O)c(CC=C(C)C)c(O)c2c(-c3ccccc3)cc(=O)oc12 (configuration not stated) | 0.1 µg/mL (≈ 0.246 µM) | 0.2 µg/mL (≈ 0.492 µM) | 0.3 µg/mL (≈ 0.738 µM)
C=C(C)C(O)Cc1c(O)c(C(=O)CC(C)C)c(O)c2c(-c3ccccc3)cc(=O)oc12 (configuration not stated) [DISPARINOL A] | 0.5 µg/mL (≈ 1.18 µM) | 0.9 µg/mL (≈ 2.13 µM) | 0.6 µg/mL (≈ 1.42 µM)
CC(C)C(=O)c1c2c(c3oc(=O)cc(-c4ccccc4)c3c1O)C[C@@H](C(C)(C)O)O2 [MESUOL CYCLO F] | 6.4 µg/mL (≈ 15.7 µM) | 5.8 µg/mL (≈ 14.2 µM) | 6.1 µg/mL (≈ 14.9 µM)
CC(C)=CCc1c(O)c(C(=O)C(C)C)c2oc(=O)cc(-c3ccccc3)c2c1O [ISOMESUOL] | 0.6 µg/mL (≈ 1.53 µM) | 0.7 µg/mL (≈ 1.78 µM) | 0.6 µg/mL (≈ 1.53 µM)
CCC(C)C(=O)c1c(O)c(CC=C(C)C)c2oc(=O)cc(-c3ccccc3)c2c1O (configuration not stated) | 0.1 µg/mL (≈ 0.246 µM) | 0.2 µg/mL (≈ 0.492 µM) | 0.1 µg/mL (≈ 0.246 µM)
CC(C)=CCc1c(O)c(C(=O)CC(C)C)c(O)c2c(-c3ccccc3)cc(=O)oc12 [MAMMEISIN] | 0.1 µg/mL (≈ 0.246 µM) | 0.2 µg/mL (≈ 0.492 µM) | 0.2 µg/mL (≈ 0.492 µM)
CC(C)=CCc1c(O)cc(O)c2c(-c3ccccc3)cc(=O)oc12 | 4.8 µg/mL (≈ 14.9 µM) | 3.4 µg/mL (≈ 10.5 µM) | 4.4 µg/mL (≈ 13.6 µM)
CC(C)=CCc1c(O)c(C(=O)CC(C)C)c2oc(=O)cc(-c3ccccc3)c2c1O [ISOMAMMEISIN] | 0.6 µg/mL (≈ 1.48 µM) | 0.7 µg/mL (≈ 1.72 µM) | 0.8 µg/mL (≈ 1.97 µM)
CC(C)=CCc1c(O)c(C(=O)C(C)C)c(O)c2c(-c3ccccc3)cc(=O)oc12 [MESUOL] | 0.1 µg/mL (≈ 0.255 µM) | 0.2 µg/mL (≈ 0.51 µM) | 0.3 µg/mL (≈ 0.764 µM)
